From patent US4440740A, “α-Keto aldehydes as enhancing agents of gastro-intestinal drug absorption” (Merck & Co., Inc., priority 1982, dated 1984)

Legend:
[1] = rectal absorption of Ara-C with methylglyoxal or phenylglyoxal; details: in vivo
Description: Effect of methylglyoxal and phenylglyoxal on rectal absorption of Ara-C, 4-Amino-1β-D-Arabinofuranosyl-2(1H)-pyrimidinone (Cytarabine), an antineoplastic, antiviral agent
Ara-C present at 1% w/v concentration

[2] = rectal drug bioavailability in rats, aqueous microenema with α-keto aldehyde absorption enhancer, versus intravenous administration; assay type: in vivo; details: 10 mg/kg
Description: Aqueous microenemas were administered to rats at an intrarectal depth of 2.5 cm containing 10 mg/kg target drug and 20 mg/kg α-keto aldehyde absorption enhancer. Serum samples were collected and drug bioavailability determined versus intravenous administration of the target compound. Glyoxylic acid, methylglyoxal and phenylglyoxal were tested as representative compounds in the α-keto aldehyde series. Data has been oriented for rectal delivery of two antibiotics (shown below).

[3] = rectal absorption of cyclic hexapeptide somatostatin analog with phenylglyoxal; details: rat, in vivo, 0.4 mg, pH 5, rectal, 0.4 mg peptide, 250 μl, read-out: Percent Bioavailability
Description: (§1) Effect of Phenylglyoxal on Rectal and Duodenal Absorption of a Cyclic Hexapeptide Somatostatin Analog Specifically Cyclo-(N-Me-Ala-Tyr-D-Trp-Lys-Val-Phe)
(§2) 250 μl volume, pH 5/animal
(§3) Cyclo-(N--Me--Ala--Tyr--D-Trp--Lvs--Val--Phe)
microenema 250 μl at 2.5 cm intrarectal depth

[4] = duodenal absorption of cyclic hexapeptide somatostatin analog with phenylglyoxal; details: rat, in vivo, 0.4 mg, pH 5, duodenal, 0.4 mg peptide, 250 μl, read-out: Percent Bioavailability
Description: as §1, §2, §3
duodenal 250 μl injection 1 cm distal to pylorus

For `O=CC(=O)c1ccccc1` [Phenylglyoxal, phenyl glyoxal], the “% Bioavailability of Ara-C” value [1] was 70.5% and the “0 min-90 min (quantity head is drawing 2) of Ara-C” value ([1]; 90 min) was 798 ± 71.0 µg·min/mL.

In the case of gentamicin sulfate, the “% bioavailability, control formulations” value ([2]; rectal, control formulation without keto aldehyde adjuvant, mean, 3 animals) is reported as 5%.

For `CC(C)[C@@H]1NC(=O)[C@H](CCCCN)NC(=O)[C@@H](Cc2c[nH]c3ccccc23)NC(=O)[C@H](Cc2ccc(O)cc2)NC(=O)[C@H](C)N(C)C(=O)[C@H](Cc2ccccc2)NC1=O` [Cyclo-(N-Me-Ala-Tyr-D-Trp-Lys-Val-Phe)], the bioavailability ([3]; phenylglyoxal 0 mg/ml) was 7%, the bioavailability ([3]; phenylglyoxal 25 mg/ml) was 34% and the bioavailability ([4]; phenylglyoxal 0 mg/ml) was 1%. It also gave a bioavailability ([4]; phenylglyoxal 25 mg/ml) of 20%.

Work on `CO[C@@]1(NC(=O)Cc2cccs2)C(=O)N2C(C(=O)O)=C(COC(N)=O)CS[C@@H]21` [sodium cefoxitin, (6R-cis)-3-[[(Aminocarbonyloxy]methyl]-7-methoxy-8-oxo-7-[(2-thienylacetyl))amino]-5-thia-1-azabicyclo-[4.2.0]oct-2-ene-2-carboxylic acid] yielded a bioavailability ([2]; rat, in vivo) of 5%.

`Nc1ccn([C@@H]2O[C@H](CO)[C@@H](O)[C@@H]2O)c(=O)n1` [Ara-C, 4-Amino-1β-D-Arabinofuranosyl-2(1H)-pyrimidinone, reference compound] gave a bioavailability ([1]; rectal, Ara-C 1% w/v, adjuvant: none) of 13.1% and an AUC at 1.5 h ([1]; rectal, Ara-C 1% w/v, adjuvant: none, 0-90 min, read-out: 0 min-90 min (quantity head is drawing 2) of Ara-C (converted)) of 1250 ng·h/mL.
